Data: US10479795B2 (Incyte Corporation, priority 2016, dated 2019)
Counter-ions that a name gives are not always drawn. Like-named read-outs stand apart in the source and are kept apart here.

Legend:
[1] = target: PI3Kδ (p110δ/p85α) Recombinant Human Protein (Homo sapiens (Human), UniProt O00329); assay: PI3Kδ Scintillation Proximity Assay; format: biochemical
Summary of the method: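 Recombinant human p110δ/p85α (3.4 nM) phosphorylates 20 μM di-octanoyl PIP2 using 2 μM ATP spiked with [γ-33P]ATP, 120 min, room temperature, pH 6.7, 2% DMSO. Product measured by scintillation proximity; IC50 from dose-response fit.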

[2] = target: PI3Kγ (p110γ) Recombinant Human Protein (Homo sapiens (Human), UniProt P48736); assay: PI3K-γ Scintillation Proximity Assay; format: biochemical; conditions: read-out: PI3Kγ IC50
Summary of the method: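 Recombinant human p110γ assayed at room temperature in 20 mM MOPS pH 6.7, 10 mM MgCl2, 5 mM DTT, 0.03% CHAPS, 2% DMSO, with 20 μM PIP2 and 2 μM ATP plus [γ-33P]ATP. Product captured on WGA SPA beads overnight and counted; IC50 fitted from % of solvent-control activity versus log inhibitor concentration.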

[3] = system: Phosphorylated Ribosomal Protein S6 (RPS6); assay: THP-1 RPS6 ELISA Assay; format: cell-based, Human; conditions: THP-1 cells, read-out: PI3Kγ_THP1_RPS6_ELISA IC50
Summary of the method: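 Serum-starved THP-1 cells were preincubated with a concentration range of compound for 2 h at 37 °C, then stimulated with 10 nM MCP-1 for 15 min. Phospho-RPS6 in lysates was quantified by ELISA at 450 nm. IC50 came from percent inhibition versus log inhibitor concentration.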

PI3Kγ (p110γ) Recombinant Human Protein, sequence (P48736 whole entry): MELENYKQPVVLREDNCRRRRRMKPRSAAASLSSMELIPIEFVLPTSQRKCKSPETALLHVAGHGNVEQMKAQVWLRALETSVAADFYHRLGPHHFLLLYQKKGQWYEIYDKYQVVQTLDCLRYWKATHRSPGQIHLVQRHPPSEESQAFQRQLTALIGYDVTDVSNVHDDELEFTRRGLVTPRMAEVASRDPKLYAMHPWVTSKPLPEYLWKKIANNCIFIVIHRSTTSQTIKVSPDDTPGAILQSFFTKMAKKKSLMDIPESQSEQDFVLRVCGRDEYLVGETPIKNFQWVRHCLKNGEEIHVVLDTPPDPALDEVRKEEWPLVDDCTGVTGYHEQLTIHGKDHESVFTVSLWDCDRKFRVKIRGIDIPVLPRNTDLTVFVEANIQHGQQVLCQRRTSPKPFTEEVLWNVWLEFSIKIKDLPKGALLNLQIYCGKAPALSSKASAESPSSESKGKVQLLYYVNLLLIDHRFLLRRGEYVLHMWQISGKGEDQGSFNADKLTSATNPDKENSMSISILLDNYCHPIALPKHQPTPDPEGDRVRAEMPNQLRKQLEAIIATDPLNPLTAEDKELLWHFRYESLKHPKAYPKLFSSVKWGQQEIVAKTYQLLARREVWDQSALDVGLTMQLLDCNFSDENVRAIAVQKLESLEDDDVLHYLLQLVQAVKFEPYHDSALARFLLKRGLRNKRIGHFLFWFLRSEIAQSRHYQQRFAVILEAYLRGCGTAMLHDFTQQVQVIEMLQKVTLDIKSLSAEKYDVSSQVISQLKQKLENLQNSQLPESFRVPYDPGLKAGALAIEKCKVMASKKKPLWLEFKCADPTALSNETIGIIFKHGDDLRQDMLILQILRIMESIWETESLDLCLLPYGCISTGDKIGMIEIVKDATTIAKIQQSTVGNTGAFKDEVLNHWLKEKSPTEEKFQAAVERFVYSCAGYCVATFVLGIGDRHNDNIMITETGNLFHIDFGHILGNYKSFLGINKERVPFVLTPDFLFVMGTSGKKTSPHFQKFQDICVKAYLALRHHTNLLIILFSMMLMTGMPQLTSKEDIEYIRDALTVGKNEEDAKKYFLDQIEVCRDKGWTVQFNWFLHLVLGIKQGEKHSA
PI3Kδ (p110δ/p85α) Recombinant Human Protein, sequence (O00329 whole entry): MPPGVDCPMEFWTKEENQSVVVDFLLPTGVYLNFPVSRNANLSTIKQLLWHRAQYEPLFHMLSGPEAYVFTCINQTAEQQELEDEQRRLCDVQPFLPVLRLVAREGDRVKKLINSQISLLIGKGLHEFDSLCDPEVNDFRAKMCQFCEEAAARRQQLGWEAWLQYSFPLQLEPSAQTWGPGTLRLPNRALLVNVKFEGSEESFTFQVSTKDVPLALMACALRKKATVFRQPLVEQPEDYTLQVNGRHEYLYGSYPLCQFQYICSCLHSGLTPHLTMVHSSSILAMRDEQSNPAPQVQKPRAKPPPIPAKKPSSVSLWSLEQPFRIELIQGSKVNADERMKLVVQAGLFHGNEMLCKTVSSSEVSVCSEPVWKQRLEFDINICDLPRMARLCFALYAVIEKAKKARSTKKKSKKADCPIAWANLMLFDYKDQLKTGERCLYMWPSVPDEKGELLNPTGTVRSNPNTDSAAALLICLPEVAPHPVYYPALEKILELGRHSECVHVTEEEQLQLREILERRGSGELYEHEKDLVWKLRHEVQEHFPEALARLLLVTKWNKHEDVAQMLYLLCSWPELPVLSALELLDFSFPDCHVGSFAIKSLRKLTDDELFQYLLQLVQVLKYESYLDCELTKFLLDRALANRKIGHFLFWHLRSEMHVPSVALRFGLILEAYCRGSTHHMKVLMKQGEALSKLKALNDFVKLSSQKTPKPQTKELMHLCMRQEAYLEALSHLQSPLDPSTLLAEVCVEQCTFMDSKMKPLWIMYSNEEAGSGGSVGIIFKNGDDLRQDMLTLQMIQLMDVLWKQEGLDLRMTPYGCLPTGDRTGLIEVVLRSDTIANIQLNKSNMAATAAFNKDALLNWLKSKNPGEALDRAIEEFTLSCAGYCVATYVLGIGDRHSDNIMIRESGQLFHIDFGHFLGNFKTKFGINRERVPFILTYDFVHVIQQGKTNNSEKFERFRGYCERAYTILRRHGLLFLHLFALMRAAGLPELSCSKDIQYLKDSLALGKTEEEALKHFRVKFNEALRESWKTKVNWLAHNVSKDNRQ
PI3Kδ (p110δ/p85α) Recombinant Human Protein, sequence (P27986 whole entry partner): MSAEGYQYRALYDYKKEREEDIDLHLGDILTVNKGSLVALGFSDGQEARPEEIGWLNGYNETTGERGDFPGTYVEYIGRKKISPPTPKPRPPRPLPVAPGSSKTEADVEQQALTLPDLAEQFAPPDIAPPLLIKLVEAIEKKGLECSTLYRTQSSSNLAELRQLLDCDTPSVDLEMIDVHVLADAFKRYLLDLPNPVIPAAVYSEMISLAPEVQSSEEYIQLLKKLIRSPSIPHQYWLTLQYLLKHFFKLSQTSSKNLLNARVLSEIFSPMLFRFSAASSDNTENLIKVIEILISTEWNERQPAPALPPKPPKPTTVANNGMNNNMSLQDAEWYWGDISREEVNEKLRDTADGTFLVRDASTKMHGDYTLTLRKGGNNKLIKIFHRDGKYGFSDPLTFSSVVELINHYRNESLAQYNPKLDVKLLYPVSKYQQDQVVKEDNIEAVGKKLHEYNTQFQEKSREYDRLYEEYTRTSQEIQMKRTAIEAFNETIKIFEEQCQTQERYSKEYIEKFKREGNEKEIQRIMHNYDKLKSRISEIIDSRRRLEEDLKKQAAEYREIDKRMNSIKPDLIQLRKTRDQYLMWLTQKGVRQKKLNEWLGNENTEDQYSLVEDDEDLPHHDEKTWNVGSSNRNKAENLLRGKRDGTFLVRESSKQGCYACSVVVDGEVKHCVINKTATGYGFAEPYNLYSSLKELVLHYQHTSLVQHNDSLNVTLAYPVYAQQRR

Molecule	IC50 [1]	IC50 [2]	IC50 ([3]; Homo sapiens)	IC50 [3]
Cc1ccc(S(=O)(=O)N[C@H]2CC[C@H](CC#N)OC2)cc1-c1cnc2c(N)ncnn12 [Example 183, 3-(4-aminoimidazo[2,1-f][1,2,4]triazin-7-yl)-N-((3S,6R)-6-(cyanomethyl)tetrahydro-2H-pyran-3-yl)-4-methylbenzenesulfonamide]	100 to 500 nM	< 100 nM	< 100 nM	–
Cc1ccc(S(=O)(=O)N2CCC3(CCO3)C2)cc1-c1cnc2c(N)ncnn12 (stereo not drawn) [Example 205, 7-(5-((1-Oxa-6-azaspiro[3.4]octan-6-yl)sulfonyl)-2-methylphenyl)imidazo[2,1-f][1,2,4]triazin-4-amine]	500 to 2000 nM	< 100 nM	> 1000 nM	–
Cc1ccc(S(=O)(=O)NC23CC(C#N)(C2)C3)cc1-c1cnc2c(N)nc(C(F)(F)F)cn12 [Example 287, 3-(8-Amino-6-(trifluoromethyl)imidazo[1,2-a]pyrazin-3-yl)-N-(3-cyanobicyclo[1.1.1]pentan-1-yl)-4-methylbenzenesulfonamide]	100 to 500 nM	< 100 nM	< 100 nM	–
3-{8-Amino-6-[3-(methylsulfonyl)phenyl]imidazo[1,2-a]pyrazin-3-yl}-N-(trans-4-hydroxycyclohexyl)-4-methylbenzenesulfonamide [Example 33]	100 to 500 nM	< 100 nM	–	500 to 1000 nM
Cc1ccc(S(=O)(=O)NC23CCC(CO)(C2)C3)cc1-c1cnc2c(N)ncnn12 [Example 107, 3-(4-Aminoimidazo[1,2-f][1,2,4]triazin-7-yl)-N-(4-(hydroxymethyl)bicyclo[2.1.1]hexan-1-yl)-4-methylbenzenesulfonamide trifluoroacetate salt]	100 to 500 nM	< 100 nM	–	500 to 1000 nM
Cc1ccc(S(=O)(=O)NC23CC(Cn4cncn4)(C2)C3)cc1-c1cnc2c(N)nc(C(F)(F)F)nn12 [Example 338, N-(3-((1H-1,2,4-triazol-1-yl)methyl)bicyclo[1.1.1]pentan-1-yl)-3-(4-amino-2-(trifluoromethyl)imidazo[1,2-f][1,2,4]triazin-7-yl)-4-methylbenzenesulfonamide]	100 to 500 nM	< 100 nM	–	100 to 500 nM
[2H][C@]1(NS(=O)(=O)c2ccc(C)c(-c3cnc4c(N)ncnn34)c2)CC[C@](C)(O)CC1 [Example 508, 3-(4-Aminoimidazo[2,1-f][1,2,4]triazin-7-yl)-N-((1r,4r)-4-hydroxy-4-methylcyclohexyl-1-d)-4-methylbenzenesulfonamide trifluoroacetate]	100 to 500 nM	< 100 nM	500 to 1000 nM	–
Cc1ccc(S(=O)(=O)NC2CN(CCO)C2)cc1-c1cnc2c(N)nc(C(F)(F)F)nn12 [Example 329, 3-(4-Amino-2-(trifluoromethyl)imidazo[1,2-f][1,2,4]triazin-7-yl)-N-(1-(2-hydroxyethyl)azetidin-3-yl)-4-methylbenzenesulfonamide trifluoroacetate salt]	100 to 500 nM	< 100 nM	–	100 to 500 nM
COC(=O)C12CC(NS(=O)(=O)c3ccc(C)c(-c4cnc5c(N)nc(C(F)(F)F)cn45)c3)(C1)C2 [Example 277, Methyl 3-(3-(8-amino-6-(trifluoromethyl)imidazo[1,2-a]pyrazin-3-yl)-4-methylphenylsulfonamido)bicyclo[1.1.1]pentane-1-carboxylate trifluoroacetate salt]	100 to 500 nM	< 100 nM	< 100 nM	–
CCS(=O)(=O)Nc1cc(-c2cnc3c(N)nccn23)cnc1F [Example 14, N-[5-(8-Aminoimidazo[1,2-a]pyrazin-3-yl)-2-fluoropyridin-3-yl]ethanesulfonamide bis(trifluoroacetate)]	< 100 nM	< 100 nM	> 1000 nM	–
Cc1ccc(S(=O)(=O)N2CC3(C2)CC(O)(C(F)(F)F)C3)cc1-c1cnc2c(N)ncnn12 [Example 141, 2-((3-(4-aminoimidazo[2,1-f][1,2,4]triazin-7-yl)-4-methylphenyl)sulfonyl)-6-(trifluoromethyl)-2-azaspiro[3.3]heptan-6-ol]	100 to 500 nM	< 100 nM	100 to 500 nM	–

Second part, the molecule after the results:

IC50 [1]	IC50 [2]	IC50 ([3]; Homo sapiens)	IC50 [3]	Molecule
< 100 nM	< 100 nM	< 100 nM	–	Cc1ccc(S(=O)(=O)N[C@H]2CC[C@H](O)CC2)cc1-c1cnc2c(N)nc(-c3ccncc3F)cn12 [Example 81, 3-[8-Amino-6-(3-fluoropyridin-4-yl)imidazo[1,2-a]pyrazin-3-yl]-N-(trans-4-hydroxycyclohexyl)-4-methylbenzenesulfonamide]
100 to 500 nM	< 100 nM	< 100 nM	–	[2H]C([2H])([2H])c1ccc(S(=O)(=O)NC23CC(CC#N)(C2)C3)cc1-c1cnc2c(N)nc(C)cn12 [Example 378, trifluoroacetate salt]
500 to 2000 nM	100 to 500 nM	> 1000 nM	–	Cc1ccc(NS(=O)(=O)C2CCOCC2)cc1-c1cnc2c(N)nccn12 [Example 471, N-(3-(8-Aminoimidazo[1,2-a]pyrazin-3-yl)-4-methylphenyl)tetrahydro-2H-pyran-4-sulfonamide]
500 to 2000 nM	< 100 nM	> 1000 nM	–	Cc1ccc(S(=O)(=O)NCCCO)cc1-c1cnc2c(N)nccn12 [Example 50, 3-(8-Aminoimidazo[1,2-a]pyrazin-3-yl)-N-(3-hydroxypropyl)-4-methylbenzenesulfonamide]
< 100 nM	< 100 nM	100 to 500 nM	–	Cc1ccc(S(=O)(=O)N[C@H]2CC[C@H](O)CC2)cc1-c1cnc2c(N)nc(-c3ccc(C(=O)N(C)C)cc3F)cn12 [Example 79, 4-[8-Amino-3-(5-{[(trans-4-hydroxycyclohexyl)amino]sulfonyl}-2-methylphenyl)imidazo[1,2-a]pyrazin-6-yl]-3-fluoro-N,N-dimethylbenzamide trifluoroacetate]
100 to 500 nM	< 100 nM	100 to 500 nM	–	CNC(=O)c1cn2c(-c3cc(S(=O)(=O)NCC4CC(F)(F)C4)ccc3C)cnc2c(N)n1 [Example 445, 8-Amino-3-(5-(N-((3,3-difluorocyclobutyl)methyl)sulfamoyl)-2-methylphenyl)-N-methylimidazo[1,2-a]pyrazine-6-carboxamide trifluoroacetate salt]
500 to 2000 nM	< 100 nM	100 to 500 nM	–	Cc1ccc(S(=O)(=O)CC2CC(F)(F)C2)cc1-c1cnc2c(N)ncnn12 [Example 500, 7-(5-(((3,3-Difluorocyclobutyl)methyl)sulfonyl)-2-methylphenyl)imidazo[2,1-f][1,2,4]triazin-4-amine]
500 to 2000 nM	< 100 nM	500 to 1000 nM	–	Cc1ccc(S(=O)(=O)N2CCCC23CCOC3)cc1-c1cnc2c(N)ncnn12 (stereo not drawn) [Example 208, 7-(5-((7-Oxa-1-azaspiro[4.4]nonan-1-yl)sulfonyl)-2-methylphenyl)imidazo[2,1-f][1,2,4]triazin-4-amine]
500 to 2000 nM	< 100 nM	> 1000 nM	–	Cc1cn2c(-c3ccc(F)c(S(=O)(=O)NC45CCC(C#N)(C4)C5)c3)cnc2c(N)n1 [Example 380, 5-(8-Amino-6-methylimidazo[1,2-a]pyrazin-3-yl)-N-(4-cyanobicyclo[2.1.1]hexan-1-yl)-2-fluorobenzenesulfonamide trifluoroacetate salt]
100 to 500 nM	< 100 nM	100 to 500 nM	–	Cc1ccc(S(=O)(=O)NC23CCC(CO)(C2)C3)cc1-c1cnc2c(N)nc(C(F)(F)F)cn12 [Example 275, 3-(8-Amino-6-(trifluoromethyl)imidazo[1,2-a]pyrazin-3-yl)-N-(4-(hydroxymethyl)bicyclo[2.1.1]hexan-1-yl)-4-methylbenzenesulfonamide trifluoroacetate salt]
500 to 2000 nM	< 100 nM	500 to 1000 nM	–	Cc1ccc(S(=O)(=O)N[C@H]2C[C@@H](CO)C2)cc1-c1cnc2c(N)ncnn12 [Example 61, 3-(4-Aminoimidazo[2,1-f][1,2,4]triazin-7-yl)-N-[cis-3-(hydroxymethyl)cyclobutyl]-4-methylbenzenesulfonamide]
500 to 2000 nM	< 100 nM	100 to 500 nM	–	Cc1ccc(S(=O)(=O)NC23CCC(O)(CC2)C3)cc1-c1cnc2c(N)ncnn12 [Example 442, 3-(4-Aminoimidazo[1,2-f][1,2,4]triazin-7-yl)-N-((1s,4s)-4-hydroxybicyclo[2.2.1]heptan-1-yl)-4-methylbenzenesulfonamide trifluoroacetate salt]
100 to 500 nM	< 100 nM	< 100 nM	–	Cc1ccc(S(=O)(=O)N[C@H]2CC[C@H](O)CC2)cc1-c1cnc2c(N)nc(C(F)(F)F)cn12 [Example 310, 3-(8-Amino-6-(trifluoromethyl)imidazo[1,2-a]pyrazin-3-yl)-N-(trans-4-hydroxycyclohexyl)-4-methylbenzenesulfonamide]
100 to 500 nM	< 100 nM	100 to 500 nM	–	Cc1noc(C23CC(NS(=O)(=O)c4ccc(C)c(-c5cnc6c(N)nc(C(F)(F)F)cn56)c4)(C2)C3)n1 [Example 293, 3-(8-Amino-6-(trifluoromethyl)imidazo[1,2-a]pyrazin-3-yl)-4-methyl-N-(3-(3-methyl-1,2,4-oxadiazol-5-yl)bicyclo[1.1.1]pentan-1-yl)benzenesulfonamide trifluoroacetate salt]
